# Source: US20040077092A1, “Control and calibration material for blood coagulation tests” (priority 2002, published 2004)
# Key:
# Type in all cases: biochemical
# [1] = tested on: control plasma "PreClot I/II"; experiment: aPTT (activated partial thromboplastin time), PTT a reagent, ball coagulometer KC10A
# Protocol: Effect of the Inventive Prolongation Substances when Added to Control Plasmas to Monitor the Determination of aPTT (activated partial thromboplastin time)
# The control plasma “PreClot I/II” from Roche Diagnostics is rehydrated according to the instructions of the manufacturer with aqueous solutions in which 0%, 2.0%, 3.5% and 5.0% N-methyl urea (in each case % by weight) are dissolved. The “PTT a reagent for the automated and manual determination of the activated partial thromboplastin time” from Roche Diagnostics is used to determine the clotting time in seconds in the control solutions obtained in this manner on a ball coagulometer KC10A from the Amelung Company (Germany).
# The experimental protocol is the same as described in example 2a).
# The only amendment was that the following concentrations of guanidine hydrochloride were added to the rehydration solution (in each case % by weight): 0%, 0.5% 1.0% and 1.5%.
# [2] = tested on: lyophilized control plasma "ACT quality control CoaguChek Pro system level 1"; experiment: Activated clotting time (ACT), ACT test cassettes of the CoaguChek Pro system
# Protocol: Effect of the Prolongation Substances According to the Invention when Added to Control Plasmas to Monitor the Determination of the Activated Clotting Time (ACT)
# The lyophilized control plasma “ACT quality control CoaguChek® Pro system level 1” from Roche Diagnostics was rehydrated with the supplied rehydration solution according to the instructions of the manufacturer. 0%, 0.25%, 0.5% and 0.75% guanidine hydrochloride (in each case % by weight) were added to these solutions.
# [3] = tested on: Commercial control material level 1 for the CoaguChek system; experiment: Prothrombin time test, CoaguChek system; prolongation substance in the rehydration solution; settings: PT
# Text: Effect of the Prolongation Substance when Added to the Rehydration Solution
# […] These solutions are subsequently measured with the CoaguChek® system (test plus measuring instrument).
# [4] = tested on: Citrate plasma that was obtained from rabbits; experiment: Prothrombin time test, CoaguChek Pro; prolongation substance added to plasma before lyophilization; settings: lyophilized, rehydrated with distilled water, PT
# Protocol: Production and Use of the Inventive Control and Calibration Material for the Product CoaguChek® Pro (test for determining the prothrombin time) from Roche Diagnostics
# Effect of the Prolongation Substance when Added to Plasma for the Production of the Control and Calibration Material.
# Citrate plasma that was obtained from rabbits was processed further as follows.
# A portion of the citrate plasma is left untreated and filled in 3.0 ml portions into siliconized vessels and lyophilized. The remainder of the plasma is used to produce preparations to which 2.0%, 3.5% and 5.0% urea (in each case % by weight) is added in each case to the plasma as the prolongation substance. These mixtures are also filled in 3.0 ml portions and lyophilized.
# After rehydration of the individual preparations with distilled water, the samples obtained in this manner are added dropwise to test cards of the CoaguChek® Pro from Roche Diagnostics and the seconds which elapse until the onset of coagulation is determined on the accompanying measuring instrument CoaguChek® Pro.
# [5] = 0.5 % by weight guanidine in the rehydration solution
structure (smiles),measurement,setting,value
CNC(N)=O [N-methyl-urea],time until the onset of coagulation,[1]; 2.0 % by weight N-methyl-urea in the rehydration solution,34.0 s
same,time until the onset of coagulation,[1]; 3.5 % by weight N-methyl-urea in the rehydration solution,38.6 s
same,time until the onset of coagulation,[1]; 5.0 % by weight N-methyl-urea in the rehydration solution,44.0 s
"Cl.N=C(N)N [guanidine, guanidine hydrochloride]",time until the onset of coagulation,[1]; [5],33.1 s
same,time until the onset of coagulation,[1]; 1.0 % by weight guanidine in the rehydration solution,41.9 s
same,time until the onset of coagulation,[1]; 1.5 % by weight guanidine in the rehydration solution,51.8 s
same,time until the onset of coagulation,[2]; 0.25 % by weight guanidine in the rehydration solution,175.6 s
same,time until the onset of coagulation,[2]; [5],223.4 s
same,time until the onset of coagulation,[2]; 0.75 % by weight guanidine in the rehydration solution,305.6 s
NC(N)=O [urea],time until the onset of coagulation,[3]; 2.0 % by weight urea in the rehydration solution,19.3 s
same,time until the onset of coagulation,[3]; 3.0 % by weight urea in the rehydration solution,28.1 s
same,time until the onset of coagulation,[3]; 4.0 % by weight urea in the rehydration solution,32.2 s
same,time until the onset of coagulation,[3]; 5.0 % by weight urea in the rehydration solution,37.8 s
same,time until the onset of coagulation,[4]; 2.0 % by weight urea added to rabbit citrate plasma,22.9 s
same,time until the onset of coagulation,[4]; 3.5 % by weight urea added to rabbit citrate plasma,29.6 s
same,time until the onset of coagulation,[4]; 5.0 % by weight urea added to rabbit citrate plasma,41.2 s
